{"source": "patent US7067158B2", "about": "“Preparation for the relief of disease” (AKL Technologies Limited, priority 2001, dated 2006)", "key": {"[1]": {"assay": "Treatment of laminitis in horses", "format": "in vivo", "conditions": "horse L: on Bute for two months", "procedure": "(§1) The loading dose is from three to ten days according to individual perceived clinical need. After the loading dose, the maintenance dose follows for a minimum (normally) of 30 days continuing as needed. The doses are scaled according to individual size/body weight. The dose was added as a powder in the animals' feed.\n(§2) JMJ, FRA and D-Tox are available from Nutrilabs of Penrhos, Raglan, Monmouthshire. They are used to make the following Example compositions according to the invention, which were used in Examples A to AA below. The following gives a daily dose for a 450 kg horse. With any of the following Example Compositions during ANY acute phase, a loading dose of 3 times the daily dose may be used to assist a rapid return to ‘well being’."}, "[2]": {"assay": "Treatment of COPD in horses", "format": "in vivo", "conditions": "horse K: COPD", "procedure": "as §1, §2"}, "[3]": {"tested_on": "Platelet Activating Factor (PAF)", "conditions": "cited from earlier work"}, "platelets": {"tested_on": "platelets", "assay": "Born aggregometry: ADP-induced platelet aggregation in platelet rich plasma (PRP)", "format": "cell-based, human", "conditions": "ADP 4×10^−6 M", "procedure": "Extracts of components were prepared by stirring macerated samples overnight in methanol. The mixtures were centrifuged, the supernatants drawn off and dried to remove all traces of the extracting solvent. Resulting solids were re-suspended in normal saline (0.9% w/v NaCl) at saturated concentrations.\nExtracts 2, 5 and 8 were reconstituted in 0.9% saline at saturated concentrations.\nCitrated whole blood, from healthy volunteers, was spun at 900 rpm for 20 minutes to obtain platelet rich plasma (PRP). Born aggregometry was then carried out within 1 hour of blood being taken. Extracts 2, 5, and 8 were added to 450 μl PRP either singly (6 μl), or in combination with one other extract (3 μl each), or all the extracts in combination (2 μl each). PRP was then stimulated with ADP (Sigma) 4×10^−6 M. 6 μl of saline was added to PRP for the control. Aggregation was measured in a PAP4C aggregometer (BioData Corp. Horsham USA) over 10 minutes.\nThe dose of agonist was chosen to give slightly sub-optimal aggregation thus showing the maximum effect of any inhibition. Doses of extracts were chosen to show the effect on platelets when used alone and any added and/or synergistic effect of using combinations. All data is recorded as the maximum aggregation."}}, "data": [{"compound": "CCCCC1C(=O)N(c2ccccc2)N(c2ccccc2)C1=O", "note": "[Bute]", "values": [{"measurement": "adverse reaction", "setting": "[1]", "result": "ulcers around the mouth and sores on the muzzle"}]}, {"compound": "CC(C)(C)NCC(O)c1cc(Cl)c(N)c(Cl)c1", "note": "(stereo not shown) [Ventipulmin, clenbuterol]", "values": [{"measurement": "clinical outcome (owner report)", "setting": "[2]", "result": "had no effect"}]}, {"compound": "CC1C(=O)OC2C(O)C34C5CC(C(C)(C)C)C36C(OC(=O)C6O)OC4(C(=O)O5)C12O", "note": "(stereo not shown) [ginkgolide B]", "values": [{"measurement": "PAF inhibiting activity", "setting": "[3]", "result": "potent"}]}, {"compound": "COc1cc(C(C)=O)ccc1O", "note": "[Extract 2, Apocynin]", "values": [{"measurement": "effect on platelet aggregation in response to ADP (in words)", "setting": "platelets", "result": "reduced platelet aggregation in response to ADP"}]}]}
